Drawing on ChEMBL document CHEMBL3991601, “The target landscape of clinical kinase drugs” (Science, 2017), this text covers Kd for 18 molecules.

Counter-ions that a name gives are not always drawn. Active and inactive are the calls of the source.

The target in assay [1] is T1, ATP-dependent RNA helicase DDX42 (Homo sapiens, UniProt Q86XP3).
T1 sequence (Q86XP3 whole entry): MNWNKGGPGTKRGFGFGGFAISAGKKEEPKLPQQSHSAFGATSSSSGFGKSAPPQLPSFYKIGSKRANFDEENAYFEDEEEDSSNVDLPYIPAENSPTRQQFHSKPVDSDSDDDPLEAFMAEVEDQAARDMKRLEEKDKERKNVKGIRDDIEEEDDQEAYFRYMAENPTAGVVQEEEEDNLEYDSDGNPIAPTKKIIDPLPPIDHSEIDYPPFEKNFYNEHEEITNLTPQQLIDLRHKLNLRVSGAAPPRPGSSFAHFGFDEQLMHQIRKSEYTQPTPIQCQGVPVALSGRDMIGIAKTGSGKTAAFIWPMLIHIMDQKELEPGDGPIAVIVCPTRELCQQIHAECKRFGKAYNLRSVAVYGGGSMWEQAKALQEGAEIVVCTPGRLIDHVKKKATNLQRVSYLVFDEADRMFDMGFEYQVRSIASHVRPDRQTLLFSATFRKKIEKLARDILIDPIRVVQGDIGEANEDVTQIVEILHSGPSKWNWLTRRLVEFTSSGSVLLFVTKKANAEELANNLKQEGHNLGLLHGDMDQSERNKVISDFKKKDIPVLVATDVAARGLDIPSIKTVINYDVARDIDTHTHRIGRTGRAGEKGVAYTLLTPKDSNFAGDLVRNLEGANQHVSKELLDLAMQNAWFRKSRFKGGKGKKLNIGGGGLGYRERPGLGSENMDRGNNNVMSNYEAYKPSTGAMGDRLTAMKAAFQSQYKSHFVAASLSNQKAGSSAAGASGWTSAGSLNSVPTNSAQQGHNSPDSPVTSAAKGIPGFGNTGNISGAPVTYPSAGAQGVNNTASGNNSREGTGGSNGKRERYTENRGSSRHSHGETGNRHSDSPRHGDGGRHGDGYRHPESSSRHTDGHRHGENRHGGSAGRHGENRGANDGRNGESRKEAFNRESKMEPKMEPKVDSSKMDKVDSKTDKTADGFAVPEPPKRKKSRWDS

The target of assay [2] is Protein kinase C delta type (Homo sapiens, UniProt Q05655).
Assay [3] concerns the target Guanine nucleotide-binding protein G(i) subunit alpha-2 (Homo sapiens, UniProt P04899).
In assay [4] the target is cAMP-dependent protein kinase catalytic subunit gamma (Homo sapiens, UniProt P22612).
The target in assay [5] is T2, Ephrin type-B receptor 2 (Homo sapiens, UniProt P29323).
T2 sequence (P29323 whole entry): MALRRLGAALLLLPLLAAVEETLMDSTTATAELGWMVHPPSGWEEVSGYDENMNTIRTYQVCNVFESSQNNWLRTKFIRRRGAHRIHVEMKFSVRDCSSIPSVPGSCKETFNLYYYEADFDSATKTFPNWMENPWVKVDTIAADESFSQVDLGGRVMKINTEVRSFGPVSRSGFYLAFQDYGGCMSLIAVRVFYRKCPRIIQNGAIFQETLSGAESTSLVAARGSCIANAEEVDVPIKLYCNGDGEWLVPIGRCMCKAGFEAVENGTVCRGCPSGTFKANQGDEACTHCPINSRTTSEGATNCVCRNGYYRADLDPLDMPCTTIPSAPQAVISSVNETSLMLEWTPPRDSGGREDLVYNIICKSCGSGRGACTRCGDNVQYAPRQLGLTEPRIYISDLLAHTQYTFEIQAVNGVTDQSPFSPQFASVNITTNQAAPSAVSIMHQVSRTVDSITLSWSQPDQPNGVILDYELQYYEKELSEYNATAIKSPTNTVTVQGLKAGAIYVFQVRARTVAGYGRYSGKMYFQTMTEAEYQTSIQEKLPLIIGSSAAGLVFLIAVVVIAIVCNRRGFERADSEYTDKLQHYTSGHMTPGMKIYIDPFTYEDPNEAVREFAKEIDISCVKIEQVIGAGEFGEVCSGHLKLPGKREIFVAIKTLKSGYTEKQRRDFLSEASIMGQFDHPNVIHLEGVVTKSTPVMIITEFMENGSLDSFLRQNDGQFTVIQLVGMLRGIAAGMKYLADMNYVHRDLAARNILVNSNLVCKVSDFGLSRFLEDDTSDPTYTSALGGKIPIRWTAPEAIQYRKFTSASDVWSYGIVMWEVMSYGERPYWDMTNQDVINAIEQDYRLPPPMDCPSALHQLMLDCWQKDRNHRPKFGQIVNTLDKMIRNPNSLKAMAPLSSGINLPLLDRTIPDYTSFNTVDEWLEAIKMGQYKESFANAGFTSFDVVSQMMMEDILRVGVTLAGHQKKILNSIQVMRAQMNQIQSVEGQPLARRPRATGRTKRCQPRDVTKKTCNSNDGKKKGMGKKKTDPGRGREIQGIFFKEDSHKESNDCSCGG

A word on the Kd: it is the concentration at which binding is half-saturated.
Also: in the data inactive means no Kd found up to 30 µM.

cAMP-dependent protein kinase catalytic subunit gamma, sequence (P22612 whole entry): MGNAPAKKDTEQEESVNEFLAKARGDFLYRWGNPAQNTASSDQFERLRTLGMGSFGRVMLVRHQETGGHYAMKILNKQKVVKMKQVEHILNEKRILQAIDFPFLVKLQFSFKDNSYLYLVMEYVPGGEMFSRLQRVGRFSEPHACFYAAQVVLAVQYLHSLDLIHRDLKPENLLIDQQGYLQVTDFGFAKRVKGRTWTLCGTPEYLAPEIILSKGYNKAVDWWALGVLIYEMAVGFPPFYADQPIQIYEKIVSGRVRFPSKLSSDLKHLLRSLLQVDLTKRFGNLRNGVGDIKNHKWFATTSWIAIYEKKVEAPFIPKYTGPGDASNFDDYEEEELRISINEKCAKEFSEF
Guanine nucleotide-binding protein G(i) subunit alpha-2, sequence (P04899 whole entry): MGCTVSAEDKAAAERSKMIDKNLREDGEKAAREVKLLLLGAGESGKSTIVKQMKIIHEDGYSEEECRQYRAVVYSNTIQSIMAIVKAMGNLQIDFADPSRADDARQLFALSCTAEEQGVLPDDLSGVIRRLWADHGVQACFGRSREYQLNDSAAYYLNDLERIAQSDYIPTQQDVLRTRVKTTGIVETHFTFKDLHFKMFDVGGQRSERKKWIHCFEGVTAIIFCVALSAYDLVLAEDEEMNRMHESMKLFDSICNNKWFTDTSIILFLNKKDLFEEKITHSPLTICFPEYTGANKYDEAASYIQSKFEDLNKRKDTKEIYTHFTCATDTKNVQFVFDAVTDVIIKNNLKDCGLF
Protein kinase C delta type, sequence (Q05655 whole entry): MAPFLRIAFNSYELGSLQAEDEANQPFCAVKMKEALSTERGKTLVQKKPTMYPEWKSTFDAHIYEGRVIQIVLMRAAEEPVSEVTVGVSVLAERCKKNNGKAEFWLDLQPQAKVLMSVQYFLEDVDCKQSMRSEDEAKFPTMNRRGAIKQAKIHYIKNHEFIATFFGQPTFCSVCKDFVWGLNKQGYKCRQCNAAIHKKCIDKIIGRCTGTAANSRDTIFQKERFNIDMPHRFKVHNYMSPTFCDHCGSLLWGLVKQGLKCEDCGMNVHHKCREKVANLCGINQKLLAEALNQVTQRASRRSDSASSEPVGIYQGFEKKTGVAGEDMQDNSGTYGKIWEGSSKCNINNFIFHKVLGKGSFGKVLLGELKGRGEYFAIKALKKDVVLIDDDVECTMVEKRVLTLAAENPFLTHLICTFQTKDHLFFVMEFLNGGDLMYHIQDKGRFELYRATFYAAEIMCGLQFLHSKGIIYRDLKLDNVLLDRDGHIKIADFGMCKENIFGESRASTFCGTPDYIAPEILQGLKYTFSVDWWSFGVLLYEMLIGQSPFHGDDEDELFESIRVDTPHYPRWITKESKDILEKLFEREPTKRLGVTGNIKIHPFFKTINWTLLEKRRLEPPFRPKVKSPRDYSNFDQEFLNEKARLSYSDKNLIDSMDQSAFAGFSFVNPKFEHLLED

For the molecule `CCS(=O)(=O)N1CCN(c2ccc(Nc3ncc(C(N)=O)c(NC4CC4)n3)cc2)CC1` [Cerdulatinib Hydrochloride], the Kd in assay [1] is > 30 µM (inactive); in assay [2] it was 3.82 µM (active); in assay [3] it was > 30 µM (inactive); in assay [4], > 30 µM (inactive); in assay [5], > 30 µM (inactive).
On to `CC(C)(C)c1nc(-c2cccc(NS(=O)(=O)c3c(F)cccc3F)c2F)c(-c2ccnc(N)n2)s1` [DABRAFENIB], for which the Kd in assay [1], in assay [2], in assay [3], in assay [4] and in assay [5] was > 30 µM (inactive) each time.
Turning to `Cc1cccc(-c2nn3c(c2-c2ccnc4ccc(C(N)=O)cc24)CCC3)n1` [GALUNISERTIB], the Kd in assay [1], in assay [2], in assay [3], in assay [4] and in assay [5] was > 30 µM (inactive) each time.
Take `CNC(=O)c1cccc2cc(Oc3ccnc4cc(OCC5(N)CC5)c(OC)cc34)ccc12` [LUCITANIB]: the Kd in assay [1], in assay [2], in assay [3], in assay [4] and in assay [5] was > 30 µM (inactive) in each case.
For `CNC(=O)c1nn(C)c2c1C(C)(C)Cc1cnc(Nc3ccc(N4CCN(C)CC4)cc3)nc1-2` [MILCICLIB], the Kd was > 30 µM (inactive) in assay [1]; > 30 µM (inactive) in assay [2]; > 30 µM (inactive) in assay [3]; > 30 µM (inactive) in assay [4]; 0.767 µM (active) in assay [5].
As to `CN(C[C@@H]1COCCO1)S(=O)(=O)Nc1ccc2ccc3ncc(-c4cnn(C)c4)cc3c(=O)c2c1` [MK-2461], the Kd in assay [1], in assay [2], in assay [3], in assay [4] and in assay [5] was > 30 µM (inactive) each time.
In the case of `Cn1cc(-c2cnc3ccc4ccc(CS(=O)(=O)NCc5ccccn5)cc4c(=O)c3c2)cn1` [MK-8033], the Kd in assay [1], in assay [2], in assay [3], in assay [4] and in assay [5] was > 30 µM (inactive) throughout.
With `Cc1nc(Nc2n[nH]c3c2CN(C(=O)N[C@H](CN(C)C)c2ccccc2)C3(C)C)c2sccc2n1` [PF-03758309], the Kd in assay [1] was > 30 µM (inactive); in assay [2] it was 0.974 µM (active); in assay [3], > 30 µM (inactive); in assay [4] it was 0.066 µM (active); in assay [5] it was > 30 µM (inactive).
Regarding `Cc1cnc(NC(=O)Nc2cc(Br)c(C)cc2OC[C@@H]2CNCCO2)cn1` [RABUSERTIB], the Kd in assay [1], in assay [2], in assay [3], in assay [4] and in assay [5] was > 30 µM (inactive) each time.
Turning to `CO[C@H]1C[C@@H]2CC[C@@H](C)[C@@](O)(O2)C(=O)C(=O)N2CCCC[C@H]2C(=O)O[C@H]([C@H](C)C[C@@H]2CC[C@@H](OP(C)(C)=O)[C@H](OC)C2)CC(=O)[C@H](C)/C=C(\C)[C@@H](O)[C@@H](OC)C(=O)[C@H](C)C[C@H](C)/C=C/C=C/C=C/1C` [RIDAFOROLIMUS], the Kd in assay [1], in assay [2], in assay [3], in assay [4] and in assay [5] was > 30 µM (inactive) each time.
On to `O=c1[nH]ccc2cc(OC3CCNCC3)ccc12` [SAR-407899 FREE BASE], for which the Kd was > 30 µM (inactive) in assay [1]; 0.021 µM (active) in assay [2]; > 30 µM (inactive) in assay [3]; > 30 µM (inactive) in assay [4]; > 30 µM (inactive) in assay [5].
As to `CN1CCN(CCOc2cc(OC3CCOCC3)c3c(Nc4c(Cl)ccc5c4OCO5)ncnc3c2)CC1` [SARACATINIB], the Kd in assay [1] was > 30 µM (inactive); in assay [2] it was > 30 µM (inactive); in assay [3], > 30 µM (inactive); in assay [4], > 30 µM (inactive); in assay [5] it was 9.42 µM (active).
Regarding `CCS(=O)(=O)c1cccc(-c2cc(C(=O)NC3CCN(C)CC3)c(C)c3[nH]c4ncc(C)cc4c23)c1` [TAK-901], the Kd in assay [1] was > 30 µM (inactive); in assay [2], > 30 µM (inactive); in assay [3] it was > 30 µM (inactive); in assay [4], > 30 µM (inactive); in assay [5], 0.669 µM (active).
In the case of `CO[C@H]1C[C@@H]2CC[C@@H](C)[C@@](O)(O2)C(=O)C(=O)N2CCCC[C@H]2C(=O)O[C@H]([C@H](C)C[C@@H]2CC[C@@H](OC(=O)C(C)(CO)CO)[C@H](OC)C2)CC(=O)[C@H](C)/C=C(\C)[C@@H](O)[C@@H](OC)C(=O)[C@H](C)C[C@H](C)/C=C/C=C/C=C/1C` [TEMSIROLIMUS], the Kd in assay [1], in assay [2], in assay [3], in assay [4] and in assay [5] was > 30 µM (inactive) each time.
Turning to `COc1cc2c(Nc3ccc(Cl)c(Cl)c3F)ncnc2cc1OC[C@@H]1C[C@@H]2CN(C)C[C@@H]2C1` [TESEVATINIB], the Kd in assay [1] was > 30 µM (inactive); in assay [2] it was > 30 µM (inactive); in assay [3] it was > 30 µM (inactive); in assay [4], > 30 µM (inactive); in assay [5], 0.448 µM (active).
`C[C@@H](NC(=O)c1ncnc(N)c1Cl)c1ncc(C(=O)Nc2cc(C(F)(F)F)c(Cl)cn2)s1` [TOVORAFENIB]: the Kd in assay [1], in assay [2], in assay [3], in assay [4] and in assay [5] was > 30 µM (inactive) throughout.
For the molecule `Cn1ncc(Cl)c1-c1cc(C(=O)N[C@H](CN)Cc2ccc(F)c(F)c2)oc1Cl` [UPROSERTIB], the Kd in assay [1], in assay [2], in assay [3], in assay [4] and in assay [5] was > 30 µM (inactive) in each case.
On to `CN1C/C=C/CCOc2cccc(c2)-c2ccnc(n2)Nc2cccc(c2)C1` [ZOTIRACICLIB], for which the Kd in assay [1] was > 30 µM (inactive); in assay [2], 0.996 µM (active); in assay [3], > 30 µM (inactive); in assay [4], > 30 µM (inactive); in assay [5], > 30 µM (inactive).
